Where two headings read alike, the source gives them in different places.

Data set [1] in a line: Bisphosphonate concentration at about 90% saturation in the vehicle. It is filed as physicochemical. The method, then:
Compositions in various vehicles (water/ethanol or buffer/ethanol, with or without additional ingredients, water (pure aqueous)) were prepared, using each bisphosphonate at a concentration of about 90% the saturation value. For example, “90/10” denotes a 90/10 (v/v) mixture of water/ethanol; “90/10 pH6” denotes a 90/10 (v/v) mixture of phosphate buffer pH6/ethanol.
Bisphosphonate concentrations are at about 90% saturation.
Risedronate sodium is generally administered using a dose of 35 mg of anhydrous monosodium risedronate, once a week. Advantageously, for a topical dose of 35 mg, this corresponds to 1.5 g of a solution according to one embodiment (risedronate at 90% saturation in phosphate-buffered hydroalcoholic solution 90/10 […], i.e. anhydrous monosodium risedronate at 22.4 mg/g). The same topical dose of 35 mg, corresponds to 0.8 g of another embodiment (risedronate at 90% saturation in pure water, i.e. anhydrous monosodium risedronate at 45.3 mg/g). […] The in vitro condition of application—i.e. 10 μl/1.77 cm^2—mimics an in vivo situation wherein the formulation is applied as a thin layer of 1-2 mg of formulation/cm^2.

The subject of data set [2] is ovariectomized rats. The conditions noted are these: OVX rats. The text has this:
(§1) Ovariectomized rats are a recognised model for bone loss study, as the surgical operation causes an estrogen deficiency which results in rapid bone loss. See Guideline on the evaluation of medicinal products in the treatment of primary osteoporosis, CPMP/EWP/552/95 available for download from the European Medicine Agency at: http://www.emea.europa.eu/.
(§2) 13-week old rats (Sprague-Dawley, virgin female), 8 per group, were sham operated (group 1-control) or ovariectomized (OVX) (groups 2 to 7) on the day before the first day of treatment.
Urinary deoxypyridinoline (D-pyr) and creatinine (Creat) were determined at baseline, week 4 and week 8. The ratio of D-Pyr to Creat is a recognised marker of bone resorption. See, e.g., Christenson RH “Biochemical markers of bone metabolism: an overview” Clin Biochem 1997, 30(8), 573-593.

For data set [3] the following is noted: rat, published data, Lin et al.; cited from earlier work.
For data set [4] the following is noted: rat.
Data set [5] relates to ovariectomized rats. Conditions: OVX rats.
Excerpt: as §1, §2
Femur and L2-L5 lumbar vertebrae block Bone Mineral Density (BMD) were calculated from in vivo Dual-energy X-ray Absorptiometry (DXA) measurement at the same time points with an Hologic apparatus. BMD was also measured ex vivo on dissected femur and L4 vertebrae at the end of the treatment period.
The source holds these as a separate data set.

The nature of data set [6]: In vitro dermal absorption, static diffusion cell (Franz cell).
Setting [7] is: phosphate-buffered hydroalcoholic solution 90/10.
Setting [8] is: group 4: 4.46 mg/kg daily topical (reduced from 15.6 mg/kg/d after 2 weeks).
The mark [9] stands for this setting: group 5: 15.6 mg/kg weekly topical.
[10] abbreviates: group 7: 10.85 mg/kg twice weekly topical (reduced from 15.6 mg/kg after 2 weeks).
[11] abbreviates: buffered solution, compared to 100% phosphate buffer solution, FIG. 10 / FIG. 11.

`NCCCC(O)(P(=O)(O)O)P(=O)(O)O` [Sodium Alendronate]: the “concentration at 90% saturation” value in data set [1] (setting [7]) turned out to be 10.4 mg/g; in data set [1] (pure water), 28.09 mg/g.

Consider `O=P([O-])(O)C(O)(Cc1cccnc1)P(=O)(O)O.[Na+]` [Sodium Risedronate], for which the entries for the “concentration at 90% saturation” value in data set [1] (setting [7]) and in data set [1] (pure water) were 22.4 mg/g and 45.3 mg/g, respectively.

Take `NCCCC(O)(P(=O)(O)O)P(=O)(O)O` [alendronate, 4-amino-1-hydroxybutylidene-1,1-bisphosphonic acid]: the “D-pyr/Creat, Week 4” value is reported as 118 ± 64 in data set [2] (group 3: 2 μg/kg daily sc inj), 58 ± 13 in data set [2] (setting [8]), 138 ± 60 in data set [2] (setting [9]) and 88 ± 52 in data set [2] (setting [10]). In addition, the “D-pyr/Creat, Week 8” value in data set [2] (group 3: 2 μg/kg daily sc inj) was found to be 72 ± 13; in data set [2] (setting [8]) it was 42 ± 15; in data set [2] (setting [9]), 67 ± 26; in data set [2] (setting [10]), 57 ± 24. The “bone recovery after oral administration” value in data set [3] is 0.9%. Further, in data set [4] (data from Example 4), the “bone recovery after dermal administration” value worked out at 0.2%. The “delivered dose contained in gauze wrap removed at 24 h” value in data set [4] (dermal administration) is recorded as “about 10%”. In addition, in data set [4] (dermal administration, 24 h), the “delivered dose contained in washing medium and swabs” value was “about 46%”. The “dermally delivered alendronate not absorbed” value in data set [4] (gauze wrap + washing medium and swabs at 24 h) stood at 56%. In data set [5] (topical groups 4-7, 8 weeks), the “BMD results compared with subcutaneous injection (group 3) or control (group 1)” value is “similar”. Besides, the “BMD in the distal metaphysis (part of femur) compared with the subcutaneous injection group (group 3)” value in data set [5] (topically treated groups 4 and 7) is reported as “statistically higher”.

With `O=P(O)(O)C(O)(Cc1cccnc1)P(=O)(O)O` [risedronate, 1-hydroxy-2-(3-pyridyl)ethylidene-1,1-bisphosphonic acid], the “effect of glycerine on the amount recovered in the receptor fluid and the dermis” value in data set [6] (FIG. 12 / FIG. 13) is listed as “does not significantly increase”. In data set [6] (setting [11]), the “effect of propylene glycol (PG) on the amount recovered” value is listed as “does not significantly affect”; the “effect of urea on the amount recovered in the receptor fluid and the skin/dermis” value was “increases”. Further, the “effect of menthol on the amount recovered in the receptor fluid and dermis” value in data set [6] (menthol at 90% of saturating concentration in 90/10 phosphate buffer/ethanol, compared to pure phosphate buffer solution, FIG. 6 / FIG. 7) was “does not increase”. For the same compound, in data set [6] (oleic acid at 90% of maximum solubility in 90/10 phosphate buffer/ethanol with Tween 80 at 4.5%, FIG. 12 / FIG. 13), the “amount recovered in the receptor fluid and the dermis with oleic acid, compared to the 100% phosphate buffer solution” value was “lower”. In addition, the “effect of urea on the amount recovered in the receptor fluid and the skin” value in data set [6] (urea incorporated in phosphate buffer solution, FIG. 8 / FIG. 9) is reported as “neutral effect”. Further, the “recovery in the receptor fluid and the dermis at 24 hrs (crossing of the skin)” value in data set [6] (water/alcohol compositions, FIG. 1 / FIG. 2) is listed as “does cross the skin”. Moreover, the “effect of the increase in alcohol content on absorption, as percentage of the dose applied” value in data set [6] (water/alcohol ratios, FIG. 1 / FIG. 2) is reported as “slightly increased”.

Values taken from patent publication US20080182822A1, “Liquid Pharmaceutical Compositions Comprising a Bisphosphonate Compound” (Besins Healthcare SA, priority 2006, published 2008).
